In PMC3726599, “A Metabolically-Stabilized Phosphonate Analog of Lysophosphatidic Acid Attenuates Collagen-Induced Arthritis” (PLoS ONE, 2013):

What was measured:
LPA2 = conditions: Ca++ mobilization, RH7777 cells; kind of constant not given; read-out: inhibition of LPA2; cited from earlier work
[1] = tested on: transformed NIH3T3 cells expressing ras and ATX; set-up: method as in PMID 18454946; conditions: cited from earlier work
ATX = conditions: at 10 μM, substrate FS-3; cited from earlier work
recombinant ATX = target: T1, recombinant ATX (Homo sapiens, UniProt Q13822); test: TOOS activity assay, LPC hydrolysis by recombinant ATX; assay type: biochemical; conditions: for Vmax of ATX in presence of BrP-LPA: 16:0 LPC 100–400 μΜ, mean(std); for % Inhibition at 10 μΜ: BrP-LPA 10 μΜ; for IC50: [S] 50 μΜ, 2 nM ATX
T1 construct: purchased SinoBiological Inc (main data); R&D (additional Km values)
Experimental: ATX/LysoPLD activity was assessed based on the amount of choline released from LPC with the use of TOOS (N-ethyl-N-(2-hydoroxy-3-sulfopropyl)-3-methylaniline) reagent. In this assay ATX-mediated LPC-liberated choline is oxidised by choline oxidase to betaine and hydrogen peroxide (H2O2). The latter in the presence of horseradish peroxidase reacts with TOOS and 4-aminoantipyrene (4-AAP) to form a pink quinoneimine dye measured at 555 nm.
Diluted plasma samples (100 fold dilution; final EDTA concentration 0.5 mM) or recombinant ATX protein (2 nM) were incubated with LPC in the presence of 100 mmol/l Tris–HCl/pH 9.0, 500 mmol/l NaCl, 5 mmol/l MgCl2, 5 mmol/l CaCl2, 60 μM CoCl2 and 0.05% Triton X-100 for 3 h at 37°C at a final volume of 100 μl. It should be noted that EDTA was used not only as an anticoagulant but also as an inhibitor of ATX activity ex vivo [46], in order to suppress artificial LPA production during blood withdrawal and plasma preparation; this is because the same samples were used in phospholipid measurements.
The liberated choline was detected by adding 100 μl of a color mix containing 4-AAP and TOOS (0.3 mM), horseradish peroxidase (5.3 UnitmL^−1) and choline oxidase (2 UnitmL^−1). Absorbance was measured at 555 nm and data were analyzed using the statistical software package Prism 4.0 (Graphpad Software Inc, La Jolla, CA, USA). For each sample and control the absorbance was plotted against time and the slope (da/min) for the linear (steady-state) portion of each reaction profile was calculated. Absorbance units were converted to nmol of choline/min/ml by comparison with a choline standard curve or by use of the extinction coefficient for the quinoneimine dye according to the following equation: [drawing 1] Where Vt* is the total volume of reaction in ml (0.2 ml); Vs* is the volume of sample in ml; e is the millimolar extinction coefficient of quinoneimine dye under the assay conditions (e = e = […]); and 1/2: Factor based on the fact that 1 mol of hydrogen peroxide produces 1/2 mol of quinoneimine dye.
The biochemistry of lyso-PLD was assessed by following the kinetics data using a wide panel of different ATX substrates [FS-3, different LPC species (14:0, 16:0, 18:0, 18:1)], three different recombinant ATX proteins (R&D, Sino-Biological and Echelon) and three different ATX activity assays (FS-3, TOOS, Amplex Red). The ATX activity was measured at different substrate concentrations (typically from 1-1000 μM) in order to examine whether ATX follows Michaelis-Menten kinetics. The Michaelis constant (Km) was obtained by fitting the substrate dependence of V (ATX activity) to a rectangular hyperbola using the non-linear regression analysis of the statistical software package Prism 4.0 (GraphPad Software, Inc.). Km and Vmax were evaluated from the rectangular hyperbola curve with the use of GraphPad software.
For in vitro inhibition measurements, BrP-LPA was dissolved in water as a stock solution (4 mM) and appropriate dilutions were made in water. The inhibition of ATX by BrP-LPA was measured employing 2 nM recombinant ATX, 50 μΜ LPC (14:0, 16:0, 18:0) and 0.01 to 100 μmol/L of BrP-LPA (final concentrations). The in vitro inhibition of ATX by BrP-LPA was evaluated with three different assays (FS-3, Amplex Red, and TOOS). […] BrP-LPA was also tested for its ability to inhibit mouse plasma ATX activity. Diluted mouse plasma was used as the source of ATX and the analysis of inhibition was made with TOOS as the in vitro inhibition assay.
The inhibition model (competitive, noncompetitive, or mixed type inhibition) was evaluated by graphical analysis with Lineweaver–Burk double reciprocal plots (1/[velocity] versus 1/[substrate]) and Cornish-Bowden plot ([substrate]/[velocity] versus [Inhibitor]). These plots were generated by the measurement of ATX activity in the presence of different BrP-LPA concentrations (0–10 μΜ) and increased amounts of 16:0 LPC (100, 200, 400 μΜ). […]

MDA-MB-231 = tested on: MDA-MB-231; set-up: method as in PMID 19509223; conditions: MDA-MB-231, in vitro; cited from earlier work
liver tumor = tested on: liver tumor; set-up: method as in earlier work; conditions: in vivo; cited from earlier work

mode of inhibition of ATX lysoPLD activity (recombinant ATX; 16:0 LPC as substrate, Cornish-Bowden and Lineweaver-Burk plots): competitive
Vmax of ATX in presence of BrP-LPA (recombinant ATX; BrP-LPA 1 μM): 51(3) nmole/min/ml
Vmax of ATX in presence of BrP-LPA (recombinant ATX; BrP-LPA 3 μM): 71(4) nmole/min/ml
Vmax of ATX in presence of BrP-LPA (recombinant ATX; BrP-LPA 10 μM): 54(13) nmole/min/ml
% Inhibition at 10 μΜ (recombinant ATX; TOOS, 16:0 LPC 50 μΜ): 80%
% Inhibition at 10 μΜ (recombinant ATX; TOOS, 18:0 LPC 50 μΜ): 70%
Ki (recombinant ATX; TOOS, 18:0 LPC, Cheng-Prusoff from IC50): 600 ± 110 nM
IC50 (recombinant ATX; TOOS, substrate 16:0 LPC, mean±std of two experiments): 700 ± 200 nM
IC50 (recombinant ATX; TOOS, substrate 18:0 LPC, mean±std): 900 ± 100 nM
SMILES: CCCCCCCCCCCCCCCC(=O)OC[C@@H](O)CC(Br)P(=O)(O)O (stereo partly drawn) [BrP-LPA, 1-bromo-3(S)-hydroxy-4-(palmitoyloxy)butyl-phosphonate]
IC50 (LPA2): 1400 nM
inhibition of invasiveness [1]: 40%
inhibition of lysophospholipase D activity of ATX (ATX): 94%
breast cancer cell migration (MDA-MB-231): reduce breast cancer cell (MDA-MB-231) migration in vitro
liver tumor weight and volume (liver tumor): reduce liver tumor weight and volume in vivo
